# From patent publication US8633315B2, “Substituted hydroxyethyl amine compounds as beta-secretase modulators and methods of use” (Amgen Inc., priority 2007, dated 2014)
# Key:
# BACE1 = BACE1 (Homo sapiens, UniProt P56817); test: In vitro enzymatic BACE FRET (fluorescence resonance energy transfer) assay; assay type: biochemical
# Summary of the method: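 Cleavage of a quenched peptide FRET substrate (50 nM) in 0.05 M acetate pH 4.2, 10% DMSO, 100 uM genapol, 1 h incubation. Reaction stopped by Tris neutralization; fluorescence read at excitation 488 nm / […].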
# [1] = test system: Cells stably expressing Amyloid Precursor Protein (APP); test: In vitro BACE cell-based assay (HEK cell assay): Aβ40 in conditioned medium by sandwich ELISA; details: Aβ40 in conditioned medium after 24 h incubation
# Summary of the method: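 APP-stably-expressing cells were grown 24 h in DMEM/10% FBS, then treated for 24 h with 10-point doses starting at 100 μM or 10 μM, at 0.1% DMSO final. Aβ40 in conditioned medium was measured by sandwich ELISA (pAb40 capture, biotinylated 6E10 detection, europium time-resolved fluorescence); IC50 from percent inhibition.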
# Sequence of BACE1 (P56817 46-501, species assumed): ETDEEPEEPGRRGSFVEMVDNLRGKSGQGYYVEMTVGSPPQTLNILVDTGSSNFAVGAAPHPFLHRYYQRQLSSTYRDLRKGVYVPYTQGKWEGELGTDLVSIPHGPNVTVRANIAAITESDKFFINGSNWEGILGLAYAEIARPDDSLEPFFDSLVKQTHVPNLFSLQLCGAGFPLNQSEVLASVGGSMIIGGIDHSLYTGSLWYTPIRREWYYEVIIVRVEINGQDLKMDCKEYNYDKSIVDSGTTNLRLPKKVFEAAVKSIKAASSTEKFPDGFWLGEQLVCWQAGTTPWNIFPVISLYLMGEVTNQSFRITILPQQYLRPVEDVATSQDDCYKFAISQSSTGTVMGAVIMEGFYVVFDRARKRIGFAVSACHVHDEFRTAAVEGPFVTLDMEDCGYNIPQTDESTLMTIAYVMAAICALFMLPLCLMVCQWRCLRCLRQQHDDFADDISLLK
IC50 (BACE1),"IC50 ([1]; Homo sapiens, HEK293, 24 h)",IC50 [1],SMILES
0.44 µM,3.31 µM,,"C=CC[C@H](NC(=O)c1cc(F)c(F)cc1F)[C@H](O)CN[C@H]1CC2(CCC2)Oc2ncc(CC(C)(C)C)cc21 [Example 77, N-((1S)-1-((1R)-2-(((4′S)-6′-(2,2-dimethylpropyl)-3′,4′-dihydrospiro[cyclobutane-1,2′-pyrano[2,3-b]pyridin]-4′-yl)amino)-1-hydroxyethyl)-3-buten-1-yl)-2,4,5-trifluorobenzamide]"
0.305 µM,1.62 µM,,"C=CC[C@H](NC(=O)c1cc(F)cc(F)c1F)[C@H](O)CN[C@H]1CC2(CCC2)Oc2ncc(CC(C)(C)C)cc21 [Example 74, N-((1S)-1-((1R)-2-(((4′S)-6′-(2,2-dimethylpropyl)-3′,4′-dihydrospiro[cyclobutane-1,2′-pyrano[2,3-b]pyridin]-4′-yl)amino)-1-hydroxyethyl)-3-buten-1-yl)-2,3,5-trifluorobenzamide]"
0.033 µM,1.56 µM,,"C=CC[C@H](NC(=O)[C@@H](F)c1ccccc1)[C@H](O)CN[C@H]1CC2(CCC2)Oc2ncc(CC(C)(C)C)cc21 [Example 142, (2S)-N-((1S)-1-((1R)-2-(((4′S)-6′-(2,2-dimethylpropyl)-3′,4′-dihydrospiro[cyclobutane-1,2′-pyrano[2,3-b]pyridin]-4′-yl)amino)-1-hydroxyethyl)-3-buten-1-yl)-2-fluoro-2-phenylethanamide]"
9.88 µM,≥ 10 µM,,"C=C(C)C[C@H](NC(=O)c1ccc2c(c1)OC(F)(F)O2)[C@H](O)CN[C@H]1CC2(CCC2)Oc2ncc(CC(C)(C)C)cc21 [Example 101, N-((1S)-1-((1R)-2-(((4′S)-6′-(2,2-dimethylpropyl)-3′,4′-dihydrospiro[cyclobutane-1,2′-pyrano[2,3-b]pyridin]-4′-yl)amino)-1-hydroxyethyl)-3-methyl-3-buten-1-yl)-2,2-difluoro-1,3-benzodioxole-5-carboxamide]"
0.396 µM,1.16 µM,,"C=CC[C@H](NC(=O)OCc1cncs1)[C@H](O)CN[C@H]1CC2(CCC2)Oc2ncc(CC(C)(C)C)cc21 [Example 105, 1,3-thiazol-5-ylmethyl ((1S)-1-((1R)-2-(((4′S)-6′-(2,2-dimethylpropyl)-3′,4′-dihydrospiro[cyclobutane-1,2′-pyrano[2,3-b]pyridin]-4′-yl)amino)-1-hydroxyethyl)-3-buten-1-yl)carbamate]"
0.419 µM,,1.29 µM,"C=CCC(NC(C)=O)C(O)CNC1CC2(CC(O)C2)Oc2ccc(Br)cc21 [Example 117, N-((1S)-1-((1R)-2-(((2r,3′R,4S)-6-bromo-3′-hydroxy-3,4-dihydrospiro[chromene-2,1′-cyclobutan]-4-yl)amino)-1-hydroxyethyl)-3-buten-1-yl)acetamide]"
0.226 µM,1.04 µM,,"C=CC[C@H](NC(=O)c1cocn1)[C@H](O)CN[C@H]1CC2(CCC2)Oc2ncc(CC(C)(C)C)cc21 [Example 129, N-((1S)-1-((1R)-2-(((4′S)-6′-(2,2-dimethylpropyl)-3′,4′-dihydrospiro[cyclobutane-1,2′-pyrano[2,3-b]pyridin]-4′-yl)amino)-1-hydroxyethyl)-3-buten-1-yl)-1,3-oxazole-4-carboxamide]"
0.069 µM,0.104 µM,,"CC#CC[C@H](NC(C)=O)[C@H](O)CN[C@H]1CC2(CCC2)Oc2ncc(CC(C)(C)C)cc21 [Example 86, N-((1S)-1-((1R)-2-(((4′S)-6′-(2,2-dimethylpropyl)-3′,4′-dihydrospiro[cyclobutane-1,2′-pyrano[2,3-b]pyridin]-4′-yl)amino)-1-hydroxyethyl)-3-pentyn-1-yl)acetamide]"
0.641 µM,3 µM,,"C=CC[C@H](NC(=O)c1c(F)cc(F)cc1F)[C@H](O)CN[C@H]1CC2(CCC2)Oc2ncc(CC(C)(C)C)cc21 [Example 78, N-((1S)-1-((1R)-2-(((4′S)-6′-(2,2-dimethylpropyl)-3′,4′-dihydrospiro[cyclobutane-1,2′-pyrano[2,3-b]pyridin]-4′-yl)amino)-1-hydroxyethyl)-3-buten-1-yl)-2,4,6-trifluorobenzamide]"
0.015 µM,,0.015 µM,"C=CCC(NC(C)=O)C(O)CNC1CC2(CC(O)C2)Oc2ccc(CC(C)(C)C)cc21 [Example 116, N-((1S)-1-((1R)-2-(((2r,3′R,4S)-6-(2,2-dimethylpropyl)-3′-hydroxy-3,4-dihydrospiro[chromene-2,1′-cyclobutan]-4-yl)amino)-1-hydroxyethyl)-3-buten-1-yl)acetamide]"
0.006 µM,0.006 µM,,"C=CC[C@H](NC(=O)C1CC(=O)N(C2CCC2)C1)[C@H](O)CN[C@H]1CC2(CCC2)Oc2ncc(CC(C)C)cc21 (stereo partly drawn) [Example 40, 1-cyclobutyl-N-((1S)-1-((1R)-1-hydroxy-2-(((4′S)-6′-(2-methylpropyl)-3′,4′-dihydrospiro[cyclobutane-1,2′-pyrano[2,3-b]pyridin]-4′-yl)amino)ethyl)-3-buten-1-yl)-5-oxo-3-pyrrolidinecarboxamide]"
0.049 µM,0.511 µM,,"C#CC[C@H](NC(=O)COC)[C@H](O)CN[C@H]1CC2(CCC2)Oc2ncc(CC(C)(C)C)cc21 [Example 85, N-((1S)-1-((1R)-2-(((4′S)-6′-(2,2-dimethylpropyl)-3′,4′-dihydrospiro[cyclobutane-1,2′-pyrano[2,3-b]pyridin]-4′-yl)amino)-1-hydroxyethyl)-3-butyn-1-yl)-2-(methyloxy)acetamide]"
0.011 µM,0.018 µM,,"CC(=O)N[C@@H](CC=C1CCC1)[C@H](O)CN[C@H]1CC2(CCC2)Oc2ncc(CC(C)(C)C)cc21 [Example 83, N-((1S,2R)-1-(2-cyclobutylideneethyl)-3-(((4′S)-6′-(2,2-dimethylpropyl)-3′,4′-dihydrospiro[cyclobutane-1,2′-pyrano[2,3-b]pyridin]-4′-yl)amino)-2-hydroxypropyl)acetamide]"
0.115 µM,0.194 µM,,"C=CC[C@H](NC(=O)[C@H](F)C(F)(F)F)[C@H](O)CN[C@H]1CC2(CCC2)Oc2ncc(CC(C)(C)C)cc21 [Example 138, (2S)-N-((1S)-1-((1R)-2-(((4′S)-6′-(2,2-dimethylpropyl)-3′,4′-dihydrospiro[cyclobutane-1,2′-pyrano[2,3-b]pyridin]-4′-yl)amino)-1-hydroxyethyl)-3-buten-1-yl)-2,3,3,3-tetrafluoropropanamide]"
0.264 µM,0.526 µM,,"C=CC[C@H](NC(=O)c1ccc(F)cc1F)[C@H](O)CN[C@H]1CC2(CCC2)Oc2ncc(CC(C)(C)C)cc21 [Example 70, N-((1S)-1-((1R)-2-(((4′S)-6′-(2,2-dimethylpropyl)-3′,4′-dihydrospiro[cyclobutane-1,2′-pyrano[2,3-b]pyridin]-4′-yl)amino)-1-hydroxyethyl)-3-buten-1-yl)-2,4-difluorobenzamide]"
0.07 µM,,0.121 µM,"C=CC[C@H](NC(=O)[C@@H](C)F)[C@H](O)CN[C@H]1CC2(CCC2)Oc2ncc(CC(C)(C)C)cc21.C=CC[C@H](NC(=O)[C@H](C)F)[C@H](O)CN[C@H]1CC2(CCC2)Oc2ncc(CC(C)(C)C)cc21 [Example 148, (2R)-N-((1S)-1-((1R)-2-(((4′S)-6′-(2,2-dimethylpropyl)-3′,4′-dihydrospiro[cyclobutane-1,2′-pyrano[2,3-b]pyridin]-4′-yl)amino)-1-hydroxyethyl)-3-buten-1-yl)-2-fluoropropanamide; (2S)-N-((1S)-1-((1R)-2-(((4′S)-6′-(2,2-dimethylpropyl)-3′,4′-dihydrospiro[cyclobutane-1,2′-pyrano[2,3-b]pyridin]-4′-yl)amino)-1-hydroxyethyl)-3-buten-1-yl)-2-fluoropropanamide]"
0.198 µM,0.277 µM,,"C=CC[C@H](NC(=O)[C@H]1CC1(F)F)[C@H](O)CN[C@H]1CC2(CCC2)Oc2ncc(CC(C)(C)C)cc21 [Example 139, (1R)-N-((1S)-1-((1R)-2-(((4′S)-6′-(2,2-dimethylpropyl)-3′,4′-dihydrospiro[cyclobutane-1,2′-pyrano[2,3-b]pyridin]-4′-yl)amino)-1-hydroxyethyl)-3-buten-1-yl)-2,2-difluorocyclopropanecarboxamide]"
0.099 µM,0.269 µM,,"C=CC[C@H](NC(=O)[C@@H](C)OC)[C@H](O)CN[C@H]1CC2(CCC2)Oc2ncc(CC(C)C)cc21 [Example 42, (2R)-N-((1S)-1-((1R)-1-hydroxy-2-(((4′S)-6′-(2-methylpropyl)-3′,4′-dihydrospiro[cyclobutane-1,2′-pyrano[2,3-b]pyridin]-4′-yl)amino)ethyl)-3-buten-1-yl)-2-(methyloxy)propanamide]"
0.215 µM,1.4 µM,,"C=CC[C@H](NC(=O)c1ccc(OC)nc1)[C@H](O)CN[C@H]1CC2(CCC2)Oc2ncc(CC(C)(C)C)cc21 [Example 63, N-((1S)-1-((1R)-2-(((4′S)-6′-(2,2-dimethylpropyl)-3′,4′-dihydrospiro[cyclobutane-1,2′-pyrano[2,3-b]pyridin]-4′-yl)amino)-1-hydroxyethyl)-3-buten-1-yl)-6-(methyloxy)-3-pyridinecarboxamide]"
0.199 µM,0.517 µM,,"C=CC[C@H](NC(=O)c1cccnc1F)[C@H](O)CN[C@H]1CC2(CCC2)Oc2ncc(CC(C)(C)C)cc21 [Example 67, N-((1S)-1-((1R)-2-(((4′S)-6′-(2,2-dimethylpropyl)-3′,4′-dihydrospiro[cyclobutane-1,2′-pyrano[2,3-b]pyridin]-4′-yl)amino)-1-hydroxyethyl)-3-buten-1-yl)-2-fluoro-3-pyridinecarboxamide]"
0.125 µM,0.349 µM,,"C=CC[C@H](NC(=O)c1ccccc1)[C@H](O)CN[C@H]1CC2(CCC2)Oc2ncc(CC(C)(C)C)cc21 [Example 59, N-((1S)-1-((1R)-2-(((4′S)-6′-(2,2-dimethylpropyl)-3′,4′-dihydrospiro[cyclobutane-1,2′-pyrano[2,3-b]pyridin]-4′-yl)amino)-1-hydroxyethyl)-3-buten-1-yl)benzamide]"
